Where “and” joins values, the source holds several entries; their conditions need not be identical. Equal values may be shown once.
What was measured:
[1] = mn = molality of the nth substance listed, in mol/kg; settings: 100 kPa, Liquid; for speed of sound: Frequency=3 MHz, Single path-length method; for mass density: Vibrating tube method
[2] = 100 kPa, Liquid, Frequency=3 MHz, Single path-length method

OCCO [1,2-ethanediol] + O
[1]
Settings | mass density, m1 = 0.09889 [kg/m3] | mass density, m1 = 0.1989 [kg/m3] | mass density, m1 = 0.2997 [kg/m3] | mass density, m1 = 0.3948 [kg/m3] | mass density, m1 = 0.5016 [kg/m3] | speed of sound, m1 = 0.09889 [m/s] | speed of sound, m1 = 0.1989 [m/s] | speed of sound, m1 = 0.2997 [m/s] | speed of sound, m1 = 0.3948 [m/s] | speed of sound, m1 = 0.5016 [m/s]
293.15 K | 999.059 | 999.884 | 1000.68 | 1001.4 | 1002.2 | 1485.5 | 1488.3 | 1491.2 | 1493.9 | 1496.8
298.15 K | 997.877 | 998.688 | 999.473 | 1000.18 | 1000.96 | 1498.9 | 1501.7 | 1504.3 | 1506.6 | 1509.1
303.15 K | 996.471 | 997.262 | 998.033 | 998.733 | 999.48 | 1511.1 | 1513.8 | 1516.2 | 1518.7 | 1521.2
308.15 K | 994.84 | 995.613 | 996.362 | 997.038 | 997.764 | 1521.8 | 1524 | 1526.2 | 1528.3 | 1530.3

Nc1ccccc1 [aniline] + O
[1]
Settings | mass density, 293.15 K | mass density, 298.15 K | mass density, 303.15 K | mass density, 308.15 K | speed of sound, 293.15 K [m/s] | speed of sound, 298.15 K [m/s] | speed of sound, 303.15 K [m/s] | speed of sound, 308.15 K
m1 = 0.1 | 998.568 kg/m3 and 998.57 kg/m3 | 997.42 kg/m3 and 997.421 kg/m3 | 995.98 kg/m3 and 995.983 kg/m3 | 994.35 kg/m3 and 994.351 kg/m3 | 1483.3 | 1497.2 | 1509.5 | 1520.5 m/s
m1 = 0.2 | 998.97 kg/m3 and 998.972 kg/m3 | 997.81 kg/m3 and 997.813 kg/m3 | 996.33 kg/m3 and 996.326 kg/m3 | 994.68 kg/m3 and 994.684 kg/m3 | 1485 | 1498.7 | 1510.8 | 1521.9 m/s and 1520.5 m/s
m1 = 0.3 | 999.36 kg/m3 and 999.363 kg/m3 | 998.21 kg/m3 and 998.208 kg/m3 | 996.705 kg/m3 and 996.71 kg/m3 | 995.035 kg/m3 and 995.04 kg/m3 | 1486.8 | 1500 | 1512.1 | 1521.9 m/s and 1523.3 m/s
m1 = 0.4 | 999.783 kg/m3 and 999.78 kg/m3 | 998.592 kg/m3 and 998.59 kg/m3 | 997.079 kg/m3 and 997.08 kg/m3 | 995.385 kg/m3 and 995.39 kg/m3 | 1488.6 | 1502 | 1513.5 | 1523.6 m/s and 1524.7 m/s

OCCOCCO [diethylene glycol] + O
[1]
Settings | mass density, m1 = 0.09849 [kg/m3] | mass density, m1 = 0.1974 [kg/m3] | mass density, m1 = 0.295 [kg/m3] | mass density, m1 = 0.4101 [kg/m3] | mass density, m1 = 0.5006 [kg/m3] | speed of sound, m1 = 0.09849 [m/s] | speed of sound, m1 = 0.1974 [m/s] | speed of sound, m1 = 0.295 [m/s] | speed of sound, m1 = 0.4101 [m/s] | speed of sound, m1 = 0.5006 [m/s]
293.15 K | 999.647 | 1001.03 | 1002.36 | 1003.86 | 1004.99 | 1487.7 | 1493.1 | 1498.1 | 1504.1 | 1508.3
298.15 K | 998.458 | 999.78 | 1001.03 | 1002.49 | 1003.59 | 1501.2 | 1506 | 1510.8 | 1516.2 | 1520.3
303.15 K | 997.071 | 998.395 | 999.643 | 1001.05 | 1002.15 | 1513.1 | 1517.6 | 1522 | 1526.9 | 1530.6
308.15 K | 995.44 | 996.778 | 998.046 | 999.471 | 1000.53 | 1523.5 | 1527.5 | 1531.5 | 1536.1 | 1539.6

OCCOCCOCCO [triethylene glycol] + O
[1]
Settings | mass density, m1 = 0.0965 [kg/m3] | mass density, m1 = 0.2002 [kg/m3] | mass density, m1 = 0.292 [kg/m3] | mass density, m1 = 0.3986 [kg/m3] | mass density, m1 = 0.4988 [kg/m3] | speed of sound, m1 = 0.0965 [m/s] | speed of sound, m1 = 0.2002 [m/s] | speed of sound, m1 = 0.292 [m/s] | speed of sound, m1 = 0.3986 [m/s] | speed of sound, m1 = 0.4988 [m/s]
293.15 K | 1000.31 | 1002.46 | 1004.29 | 1006.36 | 1008.22 | 1489.9 | 1498 | 1504.8 | 1513.1 | 1520.5
298.15 K | 999.126 | 1001.27 | 1003.11 | 1005.14 | 1006.99 | 1503.5 | 1511 | 1517.6 | 1525.4 | 1532.2
303.15 K | 997.728 | 999.858 | 1001.67 | 1003.69 | 1005.54 | 1514.8 | 1521.8 | 1528 | 1535.1 | 1541.7
308.15 K | 996.095 | 998.216 | 1000.01 | 1002.02 | 1003.85 | 1525.1 | 1531.3 | 1536.9 | 1543.3 | 1549.4

O [water]
[2]
Settings | speed of sound [m/s]
293.15 K | 1481.1
298.15 K | 1495.8
308.15 K | 1519.1

— the NIST ThermoML archive (doi:10.1021/acs.jced.8b00058)
